According to US20230150951A1, “2,5- OR 2,6-DISUBSTITUTED HYDROQUINONE DERIVATIVES WITH AT LEAST ONE CARBOXY, SULFO OR AMIDO GROUP USEFUL AS MEDICAMENTS” (OM PHARMA SA, priority 2020, published 2023):
Like-named read-outs stand apart in the source and are kept apart here.

Assays:
Type in all cases: cell-based
FGF-1 = molecular target: T1, FGF-1 (Homo sapiens, UniProt P05230); test: FGF-1 induced sprouting of HUVEC, spheroid-based cellular angiogenesis assay; conditions: FGF-1 25 ng/mL preincubated with compound, 24 h
T1 construct: purchased Peprotech 100-17A
T1 sequence (P05230 whole entry): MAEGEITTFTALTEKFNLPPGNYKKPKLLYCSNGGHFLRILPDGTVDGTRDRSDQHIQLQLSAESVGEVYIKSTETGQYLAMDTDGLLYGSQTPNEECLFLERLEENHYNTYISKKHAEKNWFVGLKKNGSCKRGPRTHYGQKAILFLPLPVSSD
Method in brief: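 Spheroids of 400 HUVEC (passage 3–4), embedded in collagen gel, were stimulated with FGF-1, FGF-2 or VEGF-A (final 25 ng/mL) preincubated 30 min at 37°C with compound (final 1.56–100 μM).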

GM-CSF = test: Cytokine release after LPS induction on human whole blood: GM-CSF
Protocol: (§1) Aim of this in vitro method is to assess compounds effects on release of a panel of cytokines from whole blood following lipopolysaccharide (LPS) induced inflammatory reaction. Whole blood was incubated with compounds for 1 h prior to LPS induction. Cytokine levels in blood were measured using a multiplex FACS-based panel.
(§2) IC50 values determined for the tested compounds expressed in microM [μM] and the values for the inhibition of cytokines were listed for each compound.
(§3) Effect on cytokines release after LPS induction was performed on the compounds dissolved in DMSO or H2O to reach 10-fold concentrated stock solutions and dissolved in culture media.
(§4) Test system: Whole blood was removed from a single donor (into lithium heparin coated tubes; BD Vacutainer; 367886) and diluted 1:5 with RPMI 1640 (Thermo Fisher, 61870036). Within 30 minutes of sampling, blood was incubated with compounds for 1 h prior to LPS stimulation (O111:B4—Sigma L4391; 10 ng/ml final concentration). Stimulation continued under standard cell culture conditions (37° C. with 5% CO2) overnight (18 h), after which plates were centrifuged and supernatant removed and frozen at −80° C. until used for analyses.
(§5) Dilution of test compounds: 10×concentrated solutions (concerning to the final assay concentrations) of each test compound were prepared with the appropriate solvent (in DMSO or in water). These 10× compound solutions (10 μl) were then added to 90 μl pre-diluted whole blood (whole blood: RPMI1640, 1:5) resulting in the final assay concentration.
(§6) Test method: Diluted whole blood (80 μl) was pre-incubated with compounds (10 μl) to give final assay concentrations of 100, 30, 10, 3, 1, 0.3 and 0.1×10^−6M. Blood was incubated at 37° C. with 5% CO2 for 1 h. LPS was diluted in cell culture media to a concentration of […]; 10 μl was added to the whole blood to give a final concentration of 10 ng/ml. Plates were incubated at 37° C. for 18 h. Plates were centrifuged at 3,000 RPM for 5 minutes at 4° C. and supernatant removed and frozen at −80° C. until FACS analysis was carried out.
(§7) Cytokine release was measured using a custom multiplex system (ELISA Genie) according to manufacturers instructions. Prepared samples were run on an Attune NxT flow cytometer (Thermo Fisher).
(§8) Quantification of cytokine release inhibition: known concentration standards were run as part of the cytokine panel to allow quantification of each cytokine concentration in each sample. This was carried out using FCAP Array v3.0 software.
(§9) Results: The dose response relationship on cytokine release following LPS induction of inflammatory response in whole blood was assessed for all compounds. IC50 values were determined for each compound for a panel of cytokines (GM-CSF, IFN-gamma, IL-1beta, IL-2, IL-4, IL-5, IL-6, IL-8, IL-9, IL-10, IL-12p40, IL-13, IL-17A, IL-17F, IL-18, IL-21, IL-22, IL-33, TGF-beta, TNF-alpha, TNF-beta).

IL-17A = test: Cytokine release after LPS induction on human whole blood: IL-17A
Protocol: as §1, §2, §3, §4, §5, §6, §7, §8, §9

[1] = Homo sapiens, LPS 10 ng/ml, 18 h, read-out: Whole Blood: GM-CSF IC50
[2] = Homo sapiens, LPS 10 ng/ml, 18 h, read-out: Whole Blood: IL-17A IC50
[3] = human whole blood, inhibition of LPS induced inflammation, read-out: IC50 GM-CSF
[4] = human whole blood, inhibition of LPS induced inflammation, read-out: IC50 IL-17A

Row | SMILES | IC50 (FGF-1) [µM] | IC50 (GM-CSF; [1]) [µM] | IC50 (IL-17A; [2]) [µM] | IC50 (GM-CSF; [3]) [µM] | IC50 (IL-17A; [4]) [µM] | IC50 (GM-CSF; Homo sapiens, 18 h, read-out: Whole Blood: GM-CSF IC50) [µM] | IC50 (GM-CSF; Homo sapiens, read-out: IC50 GM-CSF) [µM] | IC50 (IL-17A; Homo sapiens, 18 h, read-out: Whole Blood: IL-17A IC50) [µM] | IC50 (IL-17A; Homo sapiens, read-out: IC50 IL-17A) [µM]
1 | O=C(Nc1ccccc1-c1nnn[nH]1)c1cc(O)c(C(=O)Nc2ccccc2-c2nnn[nH]2)cc1O [Ic-001aTz2, N1,N4-bis(2-(1H-tetrazol-5-yl)phenyl)-2,5-dihydroxyterephthalamide] | ≥ 200 | > 100 | 0.31 |  |  |  |  |  | 
2 | O=C(O)c1cc(NC(=O)c2cc(O)c(C(=O)O)cc2O)cc(NC(=O)c2cc(O)c(C(=O)O)cc2O)c1 [Ib-010a, 3,5-bis(2,5-dihydroxy-4-carboxybenzoylamino)benzoic acid] | 14 | > 100 | 0.42 | 100 | 0.42 |  |  |  | 
3 | O=C(O)c1cc(O)cc(CSCc2cc(O)cc(C(=O)O)c2O)c1O [IVc-058a, 3-((2,5-Dihydroxy-3-carboxyphenyl)methylthiomethyl)-2,5-dihydroxybenzoic acid] | 36 | > 100 | 0.1 | 100 | 0.1 |  |  |  | 
4 | CC(=O)N(Cc1cc(O)c(C(=O)O)cc1O)Cc1cc(O)c(C(=O)O)cc1O [IIIc-057a, N,N-Bis(4-carboxy-2,5-dihydroxyphenylmethyl)acetamide] | 87 | > 100 | 1.32 | 100 | 1.32 |  |  |  | 
5 | O=C(O)c1cc(NC(=O)c2cc(O)c(C(=O)Nc3ccc(O)c(C(=O)O)c3)cc2O)ccc1O [Ic-007a, 5-(4-(3-carboxy-4-hydroxyphenylaminocarbonyl)-2,5-dihydroxybenzamido)-2-hydroxy benzoic acid] | 13 | > 100 | 0.04 | 100 | 0.04 |  |  |  | 
6 | O=C(O)c1cc(O)c(C(=O)Nc2ccccc2-c2nnn[nH]2)cc1O [Ia-001a-Tz, 4-(2-(1H-tetrazol-5-yl)phenyl-aminocarbonyl)-2,5-dihydroxybenzoic acid] | 6.2 | > 100 | 0.11 | 100 | 0.11 |  |  |  | 
7 | O=C(O)c1cc(O)c(C(=O)Nc2ccc(-c3nnn[nH]3)cc2)cc1O [Ia-003a-Tz, 4-(4-(1H-tetrazol-5-yl)phenyl-aminocarbonyl)-2,5-dihydroxybenzoic acid] | 6.7 | > 100 | 0.07 | 100 | 0.07 |  |  |  | 
8 | O=C(O)Cc1cc(O)c(C(=O)Nc2ccccc2-c2nnn[nH]2)cc1O [IIIa-001aTz] | 51 | > 100 | 0.17 | 100 | 0.17 |  |  |  | 
9 | O=C(O)c1cc(O)c(C(=O)Nc2ccccc2C(=O)O)cc1O [Ia-001a, 4-(2-carboxyphenylaminocarbonyl)-2,5-dihydroxybenzoic acid] | 41 | > 100 | 0.1 | 100 | 0.1 |  |  |  | 
10 | O=C(O)c1cc(O)c(C(=O)Nc2ccccc2S(=O)(=O)O)cc1O [Ia-001c, 2,5-dihydroxy-4-(2-sulfophenylaminocarbonyl)benzoic acid] | 21 | > 100 | 0.09 | 100 | 0.09 |  |  |  | 
11 | O=C(O)c1ccccc1CNC(=O)c1cc(O)cc(C(=O)O)c1O [IIa-053a, 3-(2-Carboxyphenylmethylaminocarbonyl)-2,5-dihydroxybenzoic acid] | 84 | > 100 | > 100 | 100 | 100 |  |  |  | 
12 | O=C(O)c1cc(NC(=O)c2cc(O)c(C(=O)O)cc2O)cc(C(=O)O)c1 [Ia-015a, 5-(4-carboxy-2,5-dihydroxybenzamido)isophthalic acid] | 20 | 2.76 | 0.05 | 2.76 | 0.05 |  |  |  | 
13 | COC(=O)c1cc(OC(C)=O)cc(CS(=O)(=O)Cc2cc(OC(C)=O)cc(C(=O)OC)c2OC(C)=O)c1OC(C)=O [IVc-059a-E2-A4] | 54 | 1.83 | 0.02 | 1.83 | 0.02 |  |  |  | 
14 | O=C(O)c1cc(NC(=O)c2cc(O)cc(C(=O)Nc3ccc(O)c(C(=O)O)c3)c2O)ccc1O [IIc-007a, 5-(3-(3-carboxy-4-hydroxyphenylaminocarbonyl)-2,5-dihydroxybenzamido)-2-hydroxy benzoic acid] | 11 | 26 | 0.01 | 26 | 0.01 |  |  |  | 
15 | O=C(O)c1cc(O)c(CN(Cc2cc(O)c(C(=O)O)cc2O)Cc2cc(O)c(C(=O)O)cc2O)cc1O [IIIc-061a, Tris(4-carboxy-2,5-dihydroxyphenylmethyl)amine] |  | 31.2 | 0.04 | 31.2 | 0.04 |  |  |  | 
16 | CCOC(=O)c1cc(NC(=O)c2cc(O)c(C(=O)OCC)cc2O)cc(NC(=O)c2cc(O)c(C(=O)OCC)cc2O)c1 [Ib-010a-E3, ethyl 3,5-bis(2,5-dihydroxy-4-ethoxycarbonylbenzoylamino)benzoate] | 26 | > 100 | 0.52 | 100 | 0.52 |  |  |  | 
17 | O=C(O)c1cc(O)cc(CS(=O)(=O)Cc2cc(O)cc(C(=O)O)c2O)c1O [IVc-059a, 3-((2,5-Dihydroxy-3-carboxyphenyl)methylsulfonylmethyl)-2,5-dihydroxybenzoic acid] | 6.7 | > 100 | 0.16 | 100 | 0.16 |  |  |  | 
18 | O=C(O)c1cc(O)ccc1NC(=O)c1cc(O)cc(C(=O)Nc2ccc(O)cc2C(=O)O)c1O [IIc-009a, 2-(3-(2-carboxy-4-hydroxyphenylaminocarbonyl)-2,5-dihydroxybenzamido)-5-hydroxyl benzoic acid] | 30 | > 100 | 0.001 | 100 | 0.001 |  |  |  | 
19 | O=C(O)c1cc(NC(=O)c2cc(O)c(C(=O)Nc3ccccc3-c3nnn[nH]3)cc2O)ccc1O [Ic-001a-Tz/004a, 5-(4-(2-(1H-tetrazol-5-yl)phenylaminocarbonyl)-2,5-dihydroxybenzamido)-2-hydroxy benzoic acid] | 19 |  |  |  |  | 3.4 | 3.4 | 0.02 | 0.02
20 | O=C(O)Cc1cc(O)c(C(=O)Nc2c(C(=O)O)cccc2C(=O)O)cc1O [IIIa-013a, 2-(4-(carboxymethyl)-2,5-dihydroxybenzamido)isophthalic acid] | 17 | 27.8 | 0.15 | 27.8 | 0.15 |  |  |  | 
